Source: US20130295666A1, “CRYSTALS OF GLUCOKINASE REGULATORY PROTEIN (GKRP)” (Boehringer Ingelheim International GmbH, priority 2011, published 2013)
Substitutions are numbered along the chain they refer to. Numbers in names are those of the source. One block for each molecule: values may come before it.

What was measured:
hGKRP_C-His [1] = target: T1, hGKRP_C-His (Homo sapiens, UniProt Q14397); assay: F1P competition with F6P in the coupled GK assay, using hGKRP_C-His; format: biochemical; details: in the presence of 6 μM F6P, read-out: EC50 of F1P to increase apparent GK activity (inactive GK-GKRP-F6P complex towards free GK)
T1 construct: made in house; host or cells: High FIVE insect cells (baculovirus, BAC-to-BAC)
T1 sequence (Q14397 with tags, fused parts or gaps): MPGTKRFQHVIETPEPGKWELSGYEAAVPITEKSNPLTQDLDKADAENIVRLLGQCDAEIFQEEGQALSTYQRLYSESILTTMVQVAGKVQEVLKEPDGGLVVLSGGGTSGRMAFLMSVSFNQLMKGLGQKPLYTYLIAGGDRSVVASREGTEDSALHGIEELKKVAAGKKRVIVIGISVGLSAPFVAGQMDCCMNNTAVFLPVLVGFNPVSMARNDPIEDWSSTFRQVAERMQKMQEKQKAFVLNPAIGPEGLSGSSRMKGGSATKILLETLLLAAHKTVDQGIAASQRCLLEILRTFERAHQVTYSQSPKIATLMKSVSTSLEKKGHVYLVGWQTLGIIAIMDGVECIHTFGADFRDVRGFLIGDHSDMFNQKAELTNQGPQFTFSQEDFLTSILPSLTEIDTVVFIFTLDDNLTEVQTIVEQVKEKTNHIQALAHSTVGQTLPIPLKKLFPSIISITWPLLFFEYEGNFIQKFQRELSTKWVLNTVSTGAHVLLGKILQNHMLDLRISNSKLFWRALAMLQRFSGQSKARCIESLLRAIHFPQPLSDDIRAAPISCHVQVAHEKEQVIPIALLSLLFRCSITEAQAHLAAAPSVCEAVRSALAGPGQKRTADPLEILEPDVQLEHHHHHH
Description: (§1) GKRP preparations according to examples 1 and 2 have been examined with respect to their enzymatic activity. The applied enzymatic assay measures the effect of GKRP on glucokinase activity in the form of a glucose-6-phosphate dehydrogenase coupled assay at room temperature which is a modification of the method described by Van Schaftingen and Brocklehurst et al. (Van Schaftingen, E. (1989): A protein from rat liver confers to glucokinase the property of being antagonistically regulated by fructose 6-phosphate and fructose 1-phosphate; Eur. J. Biochem., 179, 179-184; Brocklehurst, K. J., Davies, R. A. and Agius, L. (2004): Differences in regulatory properties between human and rat glucokinase regulatory protein; Biochem. J., 378, 693-697).
(§2) The reaction mixture contained 150 mM KCl, 100 mM Hepes, 1 mM ATP, 1 mM MgCl2, 2 mM NADP^+, 2 mM dithiothreitol, pH 7.4, 5 units/ml glucose-6-phosphate dehydrogenase, 0.5 mg/ml BSA, 10 mM glucose, 6 μM fructose 6-P, 15 nM human liver glucokinase and 100 nM of the respective GKRP. The enzymatic reaction was started by the addition of ATP and glucose. The increase in optical density was measured at a wavelength 340 nm over 10 minutes. From these kinetic data, the slope was calculated and graphically depicted.
(§3) This effect was investigated using both hGKRP_C-His as well as hGKRP_C-His_K326T/K327T. […]

hGKRP_C-His_K326T/K327T = target: T2, hGKRP_C-His_K326T/K327T (Homo sapiens, UniProt Q14397, K326T/K327T); assay: F1P competition with F6P in the coupled GK assay, using hGKRP_C-His_K326T/K327T; format: biochemical; details: in the presence of 6 μM F6P, read-out: EC50 of F1P to increase apparent GK activity (inactive GK-GKRP-F6P complex towards free GK)
T2 construct: made in house; host or cells: High FIVE insect cells (baculovirus, BAC-to-BAC)
T2 sequence (Q14397 with tags, fused parts or gaps K326T/K327T): T1 sequence (Q14397 with tags, fused parts or gaps) with K326T, K327T
Description: as §1, §2, §3

hGKRP_C-His [2] = target: T1, hGKRP_C-His; assay: amide hydrogen (H/D) exchange, ligand-bound vs apo-GKRP; format: binding; details: 30 min H/D exchange; six regions; compared to apo-GKRP
Protocol: This experiment was performed to map the potential ligand binding sites via the amide hydrogen exchange behaviour of apo-GKRP in comparison to ligand-bound GKRP.
Amide hydrogen (H/D) exchange was initiated by a 20-fold dilution of 30 pmol hGKRP_C-His with or without ligand into D2O containing 100 mM HEPES, pD 7.4, 200 mM KCl, 100 mM MgCl2, and 2 mM DTT and incubated at room temperature.
After various time points (10 sec, 1 min and 30 min), the exchange reaction was quenched by decreasing the temperature to 0° C. and the pH to 2.5 with quench buffer (500 mM KH2PO4/H3PO4, pH 2.5, 2 M Urea, and 2 mM TCEP). Quenched samples were directly injected into an HPLC setup and analyzed on an electrospray ionization-quadrupole time of flight-mass spectrometer (QSTAR XL, Applied Biosystems) as described by Rist et al. (2003): Mapping temperature-induced conformational changes in the Escherichia coli heat shock transcription factor sigma 32 by amide hydrogen exchange, J. Biol. Chem., 278, 51415-51421.
The HPLC setup contained a column (2×20 mm) packed with Poroszyme immobilized pepsin (Applied Biosystems, Darmstadt, Germany). […] The deuterium content of the peptides was calculated by using the average mass difference between the isotopic envelopes of the deuterated and the undeuterated peptides. […]

rat GKRP = target: T3, rat GKRP (Rattus norvegicus, UniProt Q07071); details: Van Schaftingen 1989, Veiga-da-Cunha and Van Schaftingen 2002; cited from earlier work
T3 sequence (Q07071 1-627): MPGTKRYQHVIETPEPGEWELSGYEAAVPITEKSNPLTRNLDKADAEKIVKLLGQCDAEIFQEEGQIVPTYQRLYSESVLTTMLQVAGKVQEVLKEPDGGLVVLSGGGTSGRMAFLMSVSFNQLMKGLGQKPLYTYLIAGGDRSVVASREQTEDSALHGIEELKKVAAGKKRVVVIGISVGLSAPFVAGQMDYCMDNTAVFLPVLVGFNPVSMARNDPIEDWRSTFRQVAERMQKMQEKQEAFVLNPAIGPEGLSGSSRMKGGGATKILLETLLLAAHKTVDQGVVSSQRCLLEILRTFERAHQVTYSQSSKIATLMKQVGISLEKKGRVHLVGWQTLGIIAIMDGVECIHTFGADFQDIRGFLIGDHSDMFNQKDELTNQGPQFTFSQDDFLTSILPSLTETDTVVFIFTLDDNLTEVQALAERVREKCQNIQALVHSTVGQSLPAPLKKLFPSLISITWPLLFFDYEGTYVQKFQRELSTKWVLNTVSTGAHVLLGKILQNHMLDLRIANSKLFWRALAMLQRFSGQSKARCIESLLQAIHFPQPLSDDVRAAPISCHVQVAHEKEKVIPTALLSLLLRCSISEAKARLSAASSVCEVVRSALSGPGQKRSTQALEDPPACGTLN

human liver glucokinase [3] = target: T4, human liver glucokinase (human, UniProt P35557-2 1-466, limits assumed); assay: cell-based or functional assay
T4 sequence (looked up): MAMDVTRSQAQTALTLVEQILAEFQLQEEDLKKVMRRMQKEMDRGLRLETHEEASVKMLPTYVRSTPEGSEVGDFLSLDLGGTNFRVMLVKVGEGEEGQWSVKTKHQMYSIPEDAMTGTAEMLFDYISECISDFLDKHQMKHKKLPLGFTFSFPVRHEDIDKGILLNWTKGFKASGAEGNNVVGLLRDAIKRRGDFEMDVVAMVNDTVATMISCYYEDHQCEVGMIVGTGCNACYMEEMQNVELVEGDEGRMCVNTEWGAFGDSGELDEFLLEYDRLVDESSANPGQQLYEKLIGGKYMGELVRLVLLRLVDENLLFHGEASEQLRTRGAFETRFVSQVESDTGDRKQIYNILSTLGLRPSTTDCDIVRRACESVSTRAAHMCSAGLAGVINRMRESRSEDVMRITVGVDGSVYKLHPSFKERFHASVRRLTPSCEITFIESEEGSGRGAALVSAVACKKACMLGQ

human liver glucokinase [4] = assay: glucose-6-phosphate dehydrogenase coupled assay measuring the effect of GKRP on glucokinase activity; format: biochemical; details: GKRP dosed in excess over GK (15 nM), alone
Description: as §1, §2

Molecule: O=C(COP(=O)(O)O)[C@@H](O)[C@H](O)[C@H](O)CO [F1P, fructose-1-phosphate]
EC50 (hGKRP_C-His [1]): 6280 ± 1070 nM
EC50 (hGKRP_C-His_K326T/K327T): 5080 ± 1380 nM
protection of GKRP regions against H/D exchange by the ligand (hGKRP_C-His [2]): protection against H/D exchange
Kd (rat GKRP): 1000 nM

B1: hGKRP_C-His (human glucokinase regulatory protein with C-terminal LEHHHHHH octapeptide) (other)
chain: T1 sequence (Q14397 with tags, fused parts or gaps)
IC50 of inhibition of GK activity in the presence of 6 µM fructose 6-phosphate (human liver glucokinase [3]): 74 nM
IC50 of inhibition of apparent GK enzymatic activity (glucose-6-phosphate dehydrogenase coupled assay), GKRP alone (human liver glucokinase [3]): 124 nM
inhibition of the apparent GK enzymatic activity (human liver glucokinase [4]): > 90%

More lines, main results first:

protection of GKRP regions against H/D exchange by the ligand (hGKRP_C-His [2]): protection against H/D exchange
Molecule: O=C(CO)[C@@H](O)[C@H](O)[C@H](O)COP(=O)(O)O [F6P, fructose-6-phosphate]
Kd (rat GKRP): 20000 nM

IC50 of decrease of apparent GK activity in the presence of 6 µM F6P (human liver glucokinase [3]): 71 nM
IC50 of decrease of apparent GK activity, GKRP alone (human liver glucokinase [3]): 116 nM
B2: hGKRP_C-His_K326T/K327T (other)
chain: T1 sequence (Q14397 with tags, fused parts or gaps) with K326T, K327T
